Data as given in patent US6989389B2, “Aryl ether substituted imidazoquinolines” (3M Innovative Properties Co., priority 2000, dated 2006).
Structures can show the parent of a compound that is named as a salt. Where two headings read alike, the source gives them in different places.

Tested on: Peripheral blood mononuclear cells (PBMC)
Assay: Cytokine Induction in Human Cells (in vitro human blood cell system, IFN and TNF secreted into culture media)
Type: cell-based
Parameters: key to Lowest Effective Concentration (μM) Tumor Necrosis Factor / Lowest Effective Concentration (μM) Interferon: *: no induction was seen at any of the tested concentrations
Details: 18 to 24 hours, tested 30-0.014 μM; for minimal effective concentration: Homo sapiens, PBMC
From the text: An in vitro human blood cell system is used to assess cytokine induction. Activity is based on the measurement of interferon and tumor necrosis factor (α) (IFN and TNF, respectively) secreted into culture media as described by Testerman et. al. In “Cytokine Induction by the Immunomodulators Imiquimod and S-27609”, Journal of Leukocyte Biology, 58, 365-372 (September, 1995).
Whole blood from healthy human donors is collected by venipuncture into EDTA vacutainer tubes. Peripheral blood mononuclear cells (PBMC) are separated from whole blood by density gradient centrifugation using Histopaque®-1077. Blood is diluted 1:1 with Dulbecco's Phosphate Buffered Saline (DPBS) or Hank's Balanced Salts Solution (HBSS). The PBMC layer is collected and washed twice with DPBS or HBSS and resuspended at 4×10^6 cells/mL in RPMI complete. The PBMC suspension is added to 48 well flat bottom sterile tissue culture plates (Costar, Cambridge, Mass. or Becton Dickinson Labware, Lincoln Park, N.J.) containing an equal volume of RPMI complete media containing test compound.
The compounds are solubilized in dimethyl sulfoxide (DMSO). The DMSO concentration should not exceed a final concentration of 1% for addition to the culture wells. The compounds are generally tested at concentrations ranging from 30-0.014 μM.
The solution of test compound is added at 60 μM to the first well containing RPMI complete and serial 3 fold dilutions are made in the wells. The PBMC suspension is then added to the wells in an equal volume, bringing the test compound concentrations to the desired range (30-0.014 μM). The final concentration of PBMC suspension is 2×10^6 cells/mL. The plates are covered with sterile plastic lids, mixed gently and then incubated for 18 to 24 hours at 37° C. in a 5% carbon dioxide atmosphere.
Following incubation the plates are centrifuged for 10 minutes at 1000 rpm (˜200×g) at 4° C. The cell-free culture supernatant is removed with a sterile polypropylene pipet and transferred to sterile polypropylene tubes. Samples are maintained at −30 to −70° C. until analysis. The samples are analyzed for interferon (α) by ELISA and for tumor necrosis factor (α) by ELISA or IGEN Assay.
Interferon (α) concentration is determined by ELISA using a Human Multi-Species kit from PBL Biomedical Laboratories, New Brunswick, N.J. Results are expressed in pg/mL.
Tumor necrosis factor (α) (TNF) concentration is determined using ELISA kits available from Biosource International, Camarillo, Calif. Alternately, the TNF concentration can be determined by Origen® M-Series Immunoassay and read on an IGEN M-8 analyzer from IGEN International, Gaithersburg, Md. The immunoassay uses a human TNF capture and detection antibody pair from Biosource International, Camarillo, Calif. Results are expressed in pg/mL.
The table below lists the lowest concentration found to induce interferon and the lowest concentration found to induce tumor necrosis factor for each compound.

[1] = lowest concentration found to induce interferon (α), ELISA, read-out: Lowest Effective Concentration (μM) Interferon
[2] = lowest concentration found to induce tumor necrosis factor (α), ELISA or IGEN assay, read-out: Lowest Effective Concentration (μM) Tumor Necrosis Factor
[3] = lowest concentration found to induce tumor necrosis factor (α), ELISA or IGEN assay
[4] = lowest concentration found to induce interferon (α), ELISA

SMILES	minimal effective concentration [1] [µM]	minimal effective concentration [2] [µM]	Lowest Effective Concentration (μM) Tumor Necrosis Factor [3]	Lowest Effective Concentration (μM) Interferon [4]
CC(C)c1ccccc1C#CCOCCn1cnc2c(N)nc3ccccc3c21 [Example 7, 1-(2-{[3-(2-Isopropylphenyl)-2-propynyl]oxy}ethyl)-1H-imidazo[4,5-c]quinolin-4-amine Hydrochloride]	1.11	0.37		
Nc1nc2ccccc2c2c1ncn2CCOCCCc1ccc(-n2cccc2)cc1 [Example 11, 1-(2-{3-[4-(1H-1-Pyrrolyl)phenyl]propoxy}ethyl)-1H-imidazo[4,5-c]quinolin-4-amine trifluoroacetate]	1.11		*	
Nc1nc2ccccc2c2c1ncn2CCOCCCc1cccc(C(=O)O)c1 [Example 12, 3-{3-[2-(4-Amino-1H-imidazo[4,5-c]quinolin-1-yl)ethoxy]propyl}benzoic acid bis(trifluoroacetate)]	10		*	
Nc1nc2ccccc2c2c1ncn2CCOCCCc1ccccc1C(=O)O [Example 13, 2-{3-[2-(4-Amino-1H-imidazo[4,5-c]quinolin-1-yl)ethoxy]propyl}benzoic acid trifluoroacetate]	10	10		
Nc1nc2ccccc2c2c1ncn2CCOCCCc1ccc(C(=O)O)cc1 [Example 14, 4-{3-[2-(4-Amino-1H-imidazo[4,5-c]quinolin-1-yl)ethoxy]propyl}benzoic acid trifluoroacetate]	10	10		
CN(C)c1cccc(CCCOCCn2cnc3c(N)nc4ccccc4c32)c1 [Example 15, 1-(2-{3-[3-(Dimethylamino)phenyl]propoxy}ethyl)-1H-imidazo[4,5-c]quinolin-4-amine dihydrochloride]	0.12		*	
CCOCc1nc2c(N)nc3ccccc3c2n1CCOCCCc1ccccc1 [Example 16, 2-(Ethoxymethyl)-1-[2-(3-phenylpropoxy)ethyl]-1H-imidazo[4,5-c]quinolin-4-amine Hydrochloride]	0.01	0.37		
Nc1ccccc1CCCOCCn1cnc2c(N)nc3ccccc3c21 [Example 18, 1-{2-[3-(2-Aminophenyl)propoxy]ethyl}-1H-imidazo[4,5-c]quinolin-4-amine trifluoroacetate]	0.12	1.11		
CCOCc1nc2c(N)nc3ccccc3c2n1CCOCCCCCCOCCCCc1ccccc1 [Example 20, 2-(Ethoxymethyl)-1-(2-{[6-(4-phenylbutoxy)hexyl]oxy}ethyl)-1H-imidazo[4,5-c]quinoline-4-amine]			*	*
CCOCc1nc2c(N)nc3ccccc3c2n1CCOCCCOCc1ccccc1 [Example 21, 1-{2-[3-(Benzyloxy)propoxy]ethyl}-2-(ethoxymethyl)-1H-imidazo[4,5-c]quinolin-4-amine]	0.12		*	
Nc1nc2ccccc2c2c1ncn2CCOCCCc1ccccc1 [Example 22, 1-[2-(3-Phenylpropoxy)ethyl]-1H-imidazo[4,5-c]quinolin-4-amine]	0.12	0.37		
CCC(COCc1ccccc1)n1cnc2c(N)nc3ccccc3c21 (stereo not shown) [Example 24]	0.12		*	
CCC(COCc1cccc(C)c1)n1cnc2c(N)nc3ccccc3c21 (stereo not shown) [Example 25]	0.12		*	
CCC(COCc1cccc(C(F)(F)F)c1)n1cnc2c(N)nc3ccccc3c21 (stereo not shown) [Example 26]	0.12		*	
CCC(COCc1ccc(Br)cc1)n1cnc2c(N)nc3ccccc3c21 (stereo not shown) [Example 27]	0.12		*	
Nc1nc2ccccc2c2c1ncn2CC(OCc1ccccc1)c1ccccc1 (stereo not shown) [Example 28]	10		*	

SMILES	minimal effective concentration [1] [µM]	minimal effective concentration [2] [µM]	Lowest Effective Concentration (μM) Tumor Necrosis Factor [3]	Lowest Effective Concentration (μM) Interferon [4]
Nc1nc2ccccc2c2c1ncn2CC(OCc1ccc(Cl)cc1)c1ccccc1 (stereo not shown) [Example 29]			*	*
Nc1nc2ccccc2c2c1ncn2CC(OCc1cccc(Cl)c1)c1ccccc1 (stereo not shown) [Example 30]	3.33		*	
Cc1ccc(COC(Cn2cnc3c(N)nc4ccccc4c32)c2ccccc2)cc1 (stereo not shown) [Example 31]			*	*
Cc1cccc(COC(Cn2cnc3c(N)nc4ccccc4c32)c2ccccc2)c1 (stereo not shown) [Example 32]	10		*	
CC(C)(Cn1cnc2c(N)nc3ccccc3c21)OCc1ccccc1 [Example 33]			*	*
CC(C)(Cn1cnc2c(N)nc3ccccc3c21)OCc1ccc(Cl)cc1 [Example 34]			*	*
CC(C)(Cn1cnc2c(N)nc3ccccc3c21)OCc1cccc(Cl)c1 [Example 35]			*	*
Cc1ccc(COC(C)(C)Cn2cnc3c(N)nc4ccccc4c32)cc1 [Example 36]			*	*
Cc1cccc(COC(C)(C)Cn2cnc3c(N)nc4ccccc4c32)c1 [Example 37]			*	*
CC(C)(Cn1cnc2c(N)nc3ccccc3c21)OCc1ccccc1Cl [Example 38]	10		*	
CC(C)(Cn1cnc2c(N)nc3ccccc3c21)OCc1ccccc1C#N [Example 39]	1.11		*	
CCC(COCc1ccccc1Cl)n1cnc2c(N)nc3ccccc3c21 (stereo not shown) [Example 40]	0.12		*	
COC(=O)c1ccc(COCCn2cnc3c(N)nc4ccccc4c32)cc1 [Example 41]	1.11	3.33		
Nc1nc2ccccc2c2c1ncn2CCOCc1ccccc1 [Example 42]	0.37		*	
CCC(COCC(=O)OC)n1cnc2c(N)nc3ccccc3c21 (stereo not shown) [Example 43]	0.37		*	
CCC(COCc1cccc(OC(F)(F)F)c1)n1cnc2c(N)nc3ccccc3c21 (stereo not shown) [Example 45]	0.37		*	
